Assay results as given in PubChem BioAssay AID2060625 (Molecular Pharmacology Branch, DTP, NCI, 2025).

System: 186277-243-T-J2-PDC spheroids with HUVEC/MSC, viability
Assay: Anticancer human tumor 186277-243-T-J2-PDC patient-derived colon adenocarcinoma cell line growth inhibition [CLK]
Details: for IC50: curve of first compound; for viability, T/C: stronger effect = lower value
Text: A high-throughput screen of multi-cell type tumor spheroids was designed to identify active combinations of […] and targeted small molecules. Complex spheroids include a stromal component modeled by human endothelial cells (HUVEC) and fibroblasts modeled by human mesenchymal stem cells (MSCs). The concentration ranges selected for each drug and investigational agent were based upon clinically achievable concentrations if the clinical Cmax of the agent was known.
Compounds. The drugs and investigational agents: cirtuvivint (SM08502; NSC835563), CC-671 (NSC850746), vemurafenib (NSC761431), tapotoclax (NSC804041), sotorasib (NSC818433), adagrasib (NSC831453), MRTX-1133 (NSC836407), BAY2416964 (NSC825713), copanlisib (NSC816437), inavolisib (NSC800729), abemaciclib (NSC768073), osimertinib (NSC779217), entinostat (NSC756642), eltanexor (KPT-8602, NSC794443), venetoclax (NSC766270), ceralasertib (NSC777638), bortezomib (NSC756655), olaparib (NSC753686), talazoparib (NSC767125), alisertib (NSC759677), peposertib (NSC802822), gemcitabine (NSC613327), 5-fluorouracil (NSC19893), SN-38 (NSC673596), oxaliplatin (NSC266046), paclitaxel (NSC125973), and doxorubicin (NSC123127), were obtained from the National Cancer Institute (NCI) Developmental Therapeutics Program Chemical Repository. The FDA-approved anticancer drug set is available from the Developmental Therapeutics Program at https://dtp.cancer.gov/organization/dscb/obtaining/available plates.htm. […] The stock solutions were prepared in dimethyl sulfoxide (DMSO, Sigma-Aldrich, St. Louis, MO, cat. D2650), except for the platinum complexes which were prepared in saline (Quality Biological, Gaithersburg, MD, cat. 114-055-101), at 800-fold the tested concentration and stored at -70 degrees C prior to their use. All drugs and investigational agents were tested over a range starting from a high concentration at or near the clinical Cmax and decreasing in half-log increments. If the clinical Cmax for an agent had not been determined, the highest concentration tested was 10 microM.
Cell Culture. All cells were maintained in an incubator at 37 degrees C and 5% CO2 with 95% humidity. The PDC lines were cultured according to standard operating procedures established by the NCI PDMR. Briefly, all PDCs were thawed and cultured in Matrigel-coated flasks prepared with a working solution of 1X Ham's F-12 nutrient mix, without supplementation (Invitrogen, Waltham, MA, cat. 11765054), 100 U/mL penicillin-streptomycin (Invitrogen, cat. 15140122), and 2.5% Matrigel (Corning Inc., Corning, NY, cat. 354248) for the first three passages. The 947758-054-R-J2-PDC line was cultured in 6B/Colon 1A media, which includes advanced DMEM/F-12 (Thermo Fisher Scientific, cat. 12634028), 10 mM HEPES (Thermo Fisher Scientific, cat. 15630080), 1X GlutaMAX supplement (Thermo Fisher Scientific, cat. 35050061), 0.1 mg/mL primocin (InvivoGen, cat. ant-pm-2), 10% defined fetal bovine serum, heat inactivated (HyClone Laboratories Inc., cat. SH30070.03HI), 1.25 mM N-Acetyl-L-cysteine (Sigma-Aldrich, cat. A9165), 10 mM nicotinamide (Sigma-Aldrich, cat. N0636), 1X B-27 supplement (Thermo Fisher Scientific, cat. 17504044), 1X N-2 supplement (Thermo Fisher Scientific, cat. 17502048), and 10 microM Y-27632 dihydrochloride (Tocris Bioscience, cat. 1254). The 876862-298-R-J1-PDC was cultured in 6E media, which includes all 6B/Colon 1A media components plus 50% L-WRN conditioned media (ATCC, cat. CRL-3276), 50 ng/mL recombinant human EGF recombinant protein (hEGF; Thermo Fisher Scientific, cat. PHG0311), 10 ng/mL recombinant human fibroblast growth factor 10 (hGFG-10; PeproTech, cat. 100-26), 1 ng/mL recombinant human fibroblast growth factor 2 (hFGF-2; PeproTech, cat. 100-18B), and 1 µM prostaglandin E2 (PGE2; Tocris, cat. 2296). The 227483-062-R1-J1-PDC line was cultured in Panc media, containing all 6E components except hFGF-2, with the addition of 500 nM SB-431542 (Selleckchem, cat. S1067) and 10 nM gastrin (Tocris, cat. 3006). […]
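Also: compound exposure lasted seven days before readout.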
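For viability, T/C in this document: 100% = DMSO vehicle control wells.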

## C=C(F)C(=O)N1CCN(c2nc(OCC3CCCN3C)nc3c2CCN(c2cccc4cccc(Cl)c24)C3)CC1CC#N (configuration not stated) + CN1CCN(c2cc(C(=O)Nc3cc4cc(-c5cnn(C)c5)ccc4cn3)ccn2)CC1
Second compound 0.0316 µM
  IC50: 6630 nM
Second compound 0.1 µM
  IC50: 5050 nM
Second compound 0.316 µM
  IC50: < 31.6 nM
Second compound 1 µM
  IC50: < 31.6 nM
Second compound 3.16 µM
  IC50: < 31.6 nM
Second compound 10 µM
  IC50: < 31.6 nM
Second compound 0.0316 µM, first compound 0.0316 µM
  viability, T/C: 84.2%
Second compound 0.0316 µM, first compound 0.1 µM
  viability, T/C: 78.5%
Second compound 0.0316 µM, first compound 0.316 µM
  viability, T/C: 115%
Second compound 0.0316 µM, first compound 1 µM
  viability, T/C: 90.6%
Second compound 0.0316 µM, first compound 3.16 µM
  viability, T/C: 106%
Second compound 0.0316 µM, first compound 10 µM
  viability, T/C: 24.9%
Second compound 0.1 µM, first compound 0.0316 µM
  viability, T/C: 82.7%
Second compound 0.1 µM, first compound 0.1 µM
  viability, T/C: 76.7%
Second compound 0.1 µM, first compound 0.316 µM
  viability, T/C: 81.4%
Second compound 0.1 µM, first compound 1 µM
  viability, T/C: 95.8%
Second compound 0.1 µM, first compound 3.16 µM
  viability, T/C: 83.5%
Second compound 0.1 µM, first compound 10 µM
  viability, T/C: 1.11%
Second compound 0.316 µM, first compound 0.0316 µM
  viability, T/C: 25.1%
Second compound 0.316 µM, first compound 0.1 µM
  viability, T/C: 27.1%
Second compound 0.316 µM, first compound 0.316 µM
  viability, T/C: 30%
Second compound 0.316 µM, first compound 1 µM
  viability, T/C: 35%
Second compound 0.316 µM, first compound 3.16 µM
  viability, T/C: 32%
Second compound 0.316 µM, first compound 10 µM
  viability, T/C: 1.64%
Second compound 1 µM, first compound 0.0316 µM
  viability, T/C: 1.65%
Second compound 1 µM, first compound 0.1 µM
  viability, T/C: 0.34%
Second compound 1 µM, first compound 0.316 µM
  viability, T/C: 1.16%
Second compound 1 µM, first compound 1 µM
  viability, T/C: 0.32%
Second compound 1 µM, first compound 3.16 µM
  viability, T/C: 0.22%
Second compound 1 µM, first compound 10 µM
  viability, T/C: 2.22%
Second compound 3.16 µM, first compound 0.0316 µM
  viability, T/C: 1.31%
Second compound 3.16 µM, first compound 0.1 µM
  viability, T/C: 1.53%
Second compound 3.16 µM, first compound 0.316 µM
  viability, T/C: 1.42%
Second compound 3.16 µM, first compound 1 µM
  viability, T/C: 1.35%
Second compound 3.16 µM, first compound 3.16 µM
  viability, T/C: 1.01%
Second compound 3.16 µM, first compound 10 µM
  viability, T/C: 1.05%
Second compound 10 µM, first compound 0.0316 µM
  viability, T/C: 0.68%
Second compound 10 µM, first compound 0.1 µM
  viability, T/C: 1%
Second compound 10 µM, first compound 0.316 µM
  viability, T/C: 1.19%
Second compound 10 µM, first compound 1 µM
  viability, T/C: 0.79%
Second compound 10 µM, first compound 3.16 µM
  viability, T/C: 1.52%
Second compound 10 µM, first compound 10 µM
  viability, T/C: 0.2%
